Square brackets hold non-standard residues; d marks the D form. Peptide text beside a SMILES is read from it. * marks the point of attachment. Biotin = O=C1N[C@H]2[C@H](CS[C@H]2CCCCC(=O)*)N1; Dmt = Cc1cc(O)cc(C)c1C[C@H](N)C(=O)O
Experiments:
[1] = tested on: ARPE-19 human retinal pigment epithelial cells; assay: Mitochondrial localization: co-localization with cytochrome c oxidase subunit 4 (COX4); type: cell-based; conditions: ARPE-19 cells, 1 uM, 2 hours, serum-free DMEM/F12
Procedure: Cells were fixed with 4% PFA at RT for 10 min and then permeabilized with 0.1% Triton X-100 at RT for 10 min. Cells were blocked with 2% BSA (bovine serum albumin) at RT for 30 min, and then incubated with primary antibody for cytochrome c oxidase subunit 4 (COX4), a major protein complex expressed on the inner mitochondrial membrane. The rabbit polyclonal COX4 antibody (Invitrogen PAS-29992, Waltham, MA) was used at 1:500 dilution in 2% BSA at 4° C. overnight.

[2] = tested on: ARPE-19 human retinal pigment epithelial cell monolayers; assay: Cell proliferation at scratch edge (PCNA staining); type: cell-based; conditions: ARPE-19 cells, 10 nM, serum-free, 24 hours after scratch
From the text: (§1) Re-epithelialization of a wound area require proliferation of cells at the wound edge, which can be impaired in most wounds due to lack of blood flow to deliver nutrients and/or growth factor(s) that can be necessary for cell proliferation. Cell proliferation in the wound edge can be monitored by proliferating cell nuclear antigen (PCNA) staining. To mimic the microenvironment of wounds in vitro, serum-free medium was used for the scratch assay in cell cultures.
(§2) Proliferating cells were identified by immunostaining with antibody to proliferating cell nuclear antigen (PCNA) according to standard procedures as presented in IHC World. PCNA staining was performed using the same plate of cells after determination of scratch area. […] All cell nuclei stain blue with Hoechst, but nuclei of proliferating cells stain red. The number of proliferating cells per field was quantified by the intensity of red nuclear stain and normalized to intensity of blue nuclear stain (determined by Nikon NIS-Elements Imaging Software).

HK-2 cells [3] = assay: Cell viability (Alamar Blue) after 11 days of serum starvation; type: cell-based, human; conditions: 10 nM, vs serum-free control
Procedure: In the first model, HK-2 cells were cultured in 96-well plates in serum-free DMEM alone or in serum-free DMEM containing 10 nM of SPN11 or SPN12 for 11 days. Culture medium was replaced every 3 days.
(§3) Cell viability was measured using the Alamar Blue Cell Proliferation Assay (Bio-Rad), according to manufacturer's protocol. Alamar Blue uses resazurin to measure reducing power of living cells. The weakly fluorescent resazurin is reduced to the highly fluorescent resorufin when reduced by cellular metabolism. Briefly, alamar blue reagent (10 ul) was added to the culture medium and incubated for 1 h at 37° C. Fluorescence from resorufin (Ex/Em 530/590 nm) was detected using a microplate reader (SpectraMax iD3, Molecular Devices).

HK-2 cells [4] = assay: Cellular ATP in extreme starvation model (serum-free 5% DMEM in PBS, 3 days); type: cell-based, human; conditions: 10 nM
Procedure: ATP was measured using the ApoSENSOR ATP Bioluminescence Assay Kit (BioVision) according to manufacturer's protocol. This kit utilizes luciferase to catalyze the formation of light from ATP and luciferin. Briefly, cells were treated with 100 ul of Nuclear Releasing Buffer for 5 min at RT with gentle shaking. 10 ul of ATP Monitoring Enzyme was added to cell lysate, and luminescence was measured using a microplate reader (SpectraMax iD3, Molecular Device). ATP levels were normalized to the serum-free DMEM control group (arbitrarily set to 1.0).
The second model uses an extreme starvation model whereby HK-2 cells were cultured in 96-well plates in serum-free 5% DMEM in PBS (phosphate-buffered saline) for 3 days. Cells were treated with 10 nM free biotin or peptide-conjugated biotin molecules. All treatments were carried out with N=6 in each experiment.

HK-2 cells [5] = assay: In vitro scratch assay (scratch area); type: cell-based, human; conditions: 10 nM; for scratch area after 24 hours, microscopic images FIG. 15: serum-free DMEM, 24 hours after mechanical scratch; for closure of the scratch area compared to control, FIG. 16 and FIG. 17 / effectiveness in reducing scratch area compared to free biotin, FIG. 16 and FIG. 17: serum-free, 24 hours
Procedure: (§4) Certain exemplary peptide-conjugated biotin molecules can accelerate wound healing in cell cultures. The in vitro scratch assay is an easy and well-developed method to measure cell proliferation and migration over a “wound area” in vitro. This assay involves creating a “scratch” in a cell monolayer with a pipette tip and then examining the rate at which cells proliferate and migrate to close the scratch.
3×10^5 cells were plated per well in 6-well plates in DMEM at 37° C. in a humidified incubator with 5% CO2 for one day prior to the experiment. To mimic the microenvironment of wounds in vitro, serum-free medium was used in the scratch assay. On the day of the scratch assay, the medium was replaced with serum-free DMEM, and a line scraped across the cell monolayer using a p1000 pipette tip. Cells were washed to remove cell debris and replaced with DMEM alone (control), or DMEM containing 10 nM biotin or peptide-conjugated biotin molecules.
(§5) The scratch area was examined immediately (day 0) using a Nikon Eclipse Ti2 fluorescence microscope. Six different field were captured for each sample using 4×objective. The scratch area (cell-free zone) was calculated using ImageJ software, an open-source Java image processing program inspired by NIH Image (National Institute of Health). The scratch area was re-examined after 24 hours (day 1), and the area was normalized to the area determined on day 0 for the same sample. All results were calculated as change from no-treatment control and averaged for the six fields.

[6] = tested on: HK-2 human renal epithelial cell monolayers; assay: Cell proliferation at scratch edge (PCNA staining); type: cell-based; conditions: HK-2 cells, 10 nM, serum-free, 24 hours after scratch; for number of proliferating cells normalized to all nuclei, FIG. 21: compared to control or biotin
From the text: as §1, §2

HK-2 cells [7] = assay: Mitochondrial potential (TMRM) of cells at the scratch edge; type: cell-based, human; conditions: 10 nM, serum-free, 24 hours after scratch; for mitochondrial potential (red fluorescence) normalized to nuclear number, FIG. 25: compared to control
From the text: Rapidly dividing cells can need ATP to support the synthesis of important building blocks. Tissue injury can cause rapid mitochondrial depolarization that compromises ATP production and/or results in cell death. The loss of ATP can further impair cell proliferation and/or tissue repair. Mitochondrial potential can be monitored in the cells at the edge of the scratch area using the cell-permeable potential-dependent dye TMRM (tetramethylrhodamine methyl ester). TMRM can accumulate in negatively charged polarized mitochondria and can be detected as red fluorescence. To mimic the microenvironment of wounds in vitro, serum-free medium was used in the scratch assay. […] HK-2 cells were then incubated with 5 nM TMRM in DMEM without phenol red and incubated for 30 min. Cells were then covered with live cell image buffer and imaged using Nikon Eclipse Ti2 fluorescent microscope (20× objective).

[8] = tested on: ARPE-19 human retinal pigment epithelial cells; assay: Biotin uptake by streptavidin-Alexa Fluor 594 fluorescence in ARPE-19 cells; conditions: 1 uM, 1-hour incubation, serum-free
Procedure: Cellular uptake and localization of peptide-conjugated biotin molecules were determined in HK-2 human renal epithelial cells and ARPE-19 human retinal pigment epithelial cells (ATCC, Manassas, VA). HK-2 cells were cultured in Dulbecco's Modified Eagle's Medium (DMEM) containing 1 g/L glucose and 10% fetal bovine serum (FBS), 100 units/ml penicillin and 100 ug/ml streptomycin. ARPE-19 cells were cultured in DMEM/F12 medium containing 1 g/L glucose and 10% fetal bovine serum (FBS), 100 units/ml penicillin and 100 ug/ml streptomycin. Cells were incubated in humidified incubator with 5% CO2 at 37° C. HK-2 cells and ARPE-19 cells were seeded in 35 mm dish at an initial density of 5×10^4 cells. FBS was removed from the culture medium for 3 days to deplete endogenous biotin in the cells. […]
Biotin uptake was determined using Streptavidin binding. […] By using Alexa Fluor 594-conjugated streptavidin, it is possible to visualize biotin uptake using fluorescence microscopy. […] Live cell image buffer was added and Alexa-594 fluorescence (Ex/Em=591/614 nm) and Hoechst fluorescence ([…]) was observed using the Nikon Eclipse Ti2 fluorescence microscope (100×oil objective). Ten random fields from each sample were quantified by NIS-Elements Imaging Software (Nikon) for streptavidin fluorescence and normalized to Hoechst fluorescence to account for number of cells per field.

ARPE-19 cells [9] = assay: Cell number and viability after 30 days of serum deprivation; type: cell-based, human; conditions: 10 nM
Procedure: as §3
In the second model, ARPE-19 cells were grown in serum-free DMEM in the absence or presence of peptide-conjugated biotin molecules for 30 days. Serum-free media was supplemented with 10 nM of SPN12, SPN15 or SPN16 compounds (all at 10 nM) was replaced every 3 days. Culture medium was replaced every 3 days.

ARPE-19 cells [10] = assay: In vitro scratch assay (scratch area); type: cell-based, human
From the text: as §4, §5

SMILES	number of proliferating (PCNA-positive) cells at the edge of the scratch, images FIG. 22 [2]	scratch area after 24 hours, microscopic images FIG. 15 (HK-2 cells [5])	closure of the scratch area compared to control, FIG. 16 and FIG. 17 (HK-2 cells [5])	effectiveness in reducing scratch area compared to free biotin, FIG. 16 and FIG. 17 (HK-2 cells [5])	number of proliferating cells normalized to all nuclei, FIG. 21 [6]	number of cells with good mitochondrial potential (TMRM) at scratch edge, images FIG. 24 (HK-2 cells [7])	mitochondrial potential (red fluorescence) normalized to nuclear number, FIG. 25 (HK-2 cells [7])	other results
Cc1cc(O)cc(C)c1C[C@H](NC(=O)[C@@H](CCCNC(=N)N)NC(=O)CCCC[C@@H]1SC[C@@H]2NC(=O)N[C@@H]21)C(=O)N[C@@H](CCCCN)C(=O)N[C@@H](Cc1ccccc1)C(N)=O [SPN05, D-Biotin-D-Arg-L-(2′6′-dimethylTyr)-L-Lys-L-Phe-NH2] (Biotin-[dR][Dmt]KF-NH2)	–	–	–	–	–	–	–	co-localization of biotin staining with COX4 staining (inner mitochondrial membrane), FIG. 6 [1]: co-localization
N=C(N)NCCC[C@@H](NC(=O)[C@@H](Cc1c[nH]c2ccccc12)NC(=O)CCCC[C@@H]1SC[C@@H]2NC(=O)N[C@@H]21)C(=O)N[C@H](Cc1c[nH]c2ccccc12)C(=O)N[C@H](CCCCN)C(=O)O [SPN08, D-Biotin-D-Trp-D-Arg-D-Trp-D-Lys-OH] (Biotin-[dW][dR][dW][dK]-OH)	increased the number of proliferating cells	–	–	–	–	–	–	–
N=C(N)NCCC[C@@H](NC(=O)[C@H](N)Cc1c[nH]c2ccccc12)C(=O)N[C@H](Cc1c[nH]c2ccccc12)C(=O)N[C@H](CCCCNC(=O)CCCC[C@@H]1SC[C@@H]2NC(=O)N[C@@H]21)C(=O)O [SPN09, D-Trp-D-Arg-D-Trp-D-Lys(biotinyl)-OH] (H-[dW][dR][dW][dK](Biotin)-OH; N-terminus assumed)	increased the number of proliferating cells	–	–	–	–	–	–	–
N=C(N)NCCC[C@H](NC(=O)[C@@H](N)Cc1c[nH]c2ccccc12)C(=O)N[C@@H](Cc1c[nH]c2ccccc12)C(=O)N[C@@H](CCCCNC(=O)CCCC[C@@H]1SC[C@@H]2NC(=O)N[C@@H]21)C(N)=O [SPN11, L-Trp-L-Arg-L-Trp-L-Lys(biotinyl)-NH2] (H-WRWK(Biotin)-NH2; N-terminus assumed)	increased the number of proliferating cells	almost completely closed	significantly accelerated the closure of the scratch area	twice as effective	doubled	increased the number of cells with good mitochondrial potential	significantly increased mitochondrial potential	improvement of cell viability in the absence of serum, FIG. 7 (HK-2 cells [3]): 35%; ATP content compared to free biotin under extreme starvation, FIG. 12 (HK-2 cells [4]): doubling; number of proliferating (PCNA-positive) cells at the edge of the scratch, images FIG. 20 ([6]; compared to free biotin): increased the number of proliferating cells
N=C(N)NCCC[C@@H](NC(=O)CCCC[C@@H]1SC[C@@H]2NC(=O)N[C@@H]21)C(=O)N[C@@H](Cc1ccc(O)cc1)C(=O)N[C@H](CCCNC(=N)N)C(=O)N[C@@H](Cc1ccccc1)C(=O)N[C@@H](CCCCNC(=O)CCCC[C@@H]1SC[C@@H]2NC(=O)N[C@@H]21)C(N)=O [SPN16, D-Biotin-D-Arg-L-Tyr-D-Arg-L-Phe-L-Lys(biotinyl)-NH2] (Biotin-[dR]Y[dR]FK(Biotin)-NH2)	–	–	significantly accelerated the closure of the scratch area	three times more effective	–	–	–	intracellular streptavidin staining (cellular uptake of biotin), microscopic images FIG. 4 [8]: intense red staining with a perinuclear distribution; cell viability after serum deprivation compared to control, FIG. 9 (ARPE-19 cells [9]; 30 days of serum deprivation): doubled; cell number after prolonged serum deprivation, microscopic images FIG. 8 (ARPE-19 cells [9]; 30 days serum-free): increased cell number; wound healing (scratch closure), FIG. 18 (ARPE-19 cells [10]): accelerated wound healing
O=C(O)CCCC[C@@H]1SC[C@@H]2NC(=O)N[C@@H]21 [biotin]	no effect	small effect on reducing scratch area	significantly accelerated the closure of the scratch area	–	small and did not reach statistical significance	no effect	did not reach statistical significance	increase of the percent of proliferating cells at the edge of the scratch, FIG. 23 ([2]; compared to control): without effect

— patent publication US11801235B2, “Methods and compositions for delivery of biotin to mitochondria” (priority 2020, dated 2023)
